Results from patent US20180243325A1, “METHOD FOR INHIBITING ABSORPTION OF AND/OR PROMOTING EXCRETION OF LIPIDS USING D-PSICOSE” (CJ CHEILJEDANG CORPORATION, priority 2015, published 2018).

Tests used:
Format in all cases: in vivo, C57BL/6J mice
[1] = test system: high-fat diet-induced obese mice; assay: Plasma lipid profiles of high-fat diet-induced obese mice; settings: HFD+5% w/w in diet, 16 weeks
Method: (§1) First, 4-week-old male C57BL/6J mice (60 total) were purchased from Jackson Laboratory. The animals were acclimated to the vivarium in a thermo-hygrostat (20-23° C., 45-65%) under a 12 h light/dark cycle and fed a pelletized commercial non-purified diet for 1 week after arrival. The mice were then randomly divided into 6 groups (n=10) and fed the respective experimental diets for 16 weeks: normal diet group (ND, American Institute of Nutrition (AIN)-76 semi-synthetic diet), high-fat diet group (HFD, 20% fat+1% cholesterol based on AIN-76 diet), PSI group (HFD+5% D-psicose, w/w, Sigma Chemical Company), ERY group (HFD+5% erythritol, w/w, Sigma Chemical Company), GLU group (HFD+5% D-glucose, w/w, Sigma Chemical Company), and FRU group (HFD+5% D-fructose, w/w, Sigma Chemical Company). All high-fat diet-fed groups were allowed to ingest the same calories by pair feeding based on the PSI group. The mice had ad libitum access to distilled water during the experimental period. Their feed intakes and body weights were measured daily and biweekly, respectively. The organ weights and the adipose tissue weights of the mice were measured after sacrificing the animals. Plasma free fatty acid, phospholipid, apolipoprotein A-I (Apo A-I), and apolipoprotein B (ApoB B) levels were measured using Nittobo enzymatic kits (Nittobo medical Co., Tokyo, Japan). Plasma HDL-cholesterol, triglyceride (TG), and total cholesterol (total-C) levels were measured using Asan enzymatic kits (Asan, Seoul, South Korea).

[2] = test system: FAS (fatty acid synthase, 14101); assay: Hepatic mRNA expression, real-time quantitative PCR: FAS; settings: FIG. 6, liver, HFD+5% w/w in diet, 16 weeks
Method: as §1, with “animals.” for “animals. Plasma free fatty acid, phospholipid, apolipoprotein A-I (Apo A-I), and apolipoprotein B (ApoB B) levels were measured using Nittobo enzymatic kits (Nittobo medical Co., Tokyo, Japan). Plasma HDL-cholesterol, triglyceride (TG), and total cholesterol (total-C) levels were measured using Asan enzymatic kits (Asan, Seoul, South Korea).”
(§2) Samples were prepared and analyzed as previously described. Specifically, total RNA was synthesized into cDNA using a QuantiTect Reverse Transcription kit (QIAGEN Gmb1h, Hilden, Germany). RNA expression was quantified with real-time quantitative PCR using a QuantiTect SYBR Green PCR kit (QIAGEN Gmb1h, Hilden, Germany). Primers were designed to detect FAS (fatty acid synthase, 14101), ACC1 (Acetyl-CoA carboxylase 1, 107476), CPT1α (Carnitine palmitoyltransferase 1α, 12894), and CPT2 (Carnitine palmitoyltransferase 2, 12896). GAPDH was used as an internal transcription marker. The reaction was performed a total of 40 cycles (each consisting of 15 sec at 94° C., 30 sec at 58° C., 30 sec at 72° C., and 15 sec at 65° C.). Fluorescence signals were monitored every cycle and the resulting threshold cycles (Ct) were analyzed. mRNA expression in each experimental group was quantified using a CFX96 Real time system (Bio-rad, USA).

[3] = test system: ACC1 (Acetyl-CoA carboxylase 1, 107476); assay: Hepatic mRNA expression, real-time quantitative PCR: ACC1; settings: FIG. 6, liver, HFD+5% w/w in diet, 16 weeks
Method: as §1, with “animals.” for “animals. Plasma free fatty acid, phospholipid, apolipoprotein A-I (Apo A-I), and apolipoprotein B (ApoB B) levels were measured using Nittobo enzymatic kits (Nittobo medical Co., Tokyo, Japan). Plasma HDL-cholesterol, triglyceride (TG), and total cholesterol (total-C) levels were measured using Asan enzymatic kits (Asan, Seoul, South Korea).”
as §2

[4] = test system: CPT1α (Carnitine palmitoyltransferase 1α, 12894); assay: Hepatic mRNA expression, real-time quantitative PCR: CPT1α; settings: FIG. 6, liver, HFD+5% w/w in diet, 16 weeks
Method: as §1, with “animals.” for “animals. Plasma free fatty acid, phospholipid, apolipoprotein A-I (Apo A-I), and apolipoprotein B (ApoB B) levels were measured using Nittobo enzymatic kits (Nittobo medical Co., Tokyo, Japan). Plasma HDL-cholesterol, triglyceride (TG), and total cholesterol (total-C) levels were measured using Asan enzymatic kits (Asan, Seoul, South Korea).”
as §2

[5] = test system: CPT2 (Carnitine palmitoyltransferase 2, 12896); assay: Hepatic mRNA expression, real-time quantitative PCR: CPT2; settings: FIG. 6, liver, HFD+5% w/w in diet, 16 weeks
Method: as §1, with “animals.” for “animals. Plasma free fatty acid, phospholipid, apolipoprotein A-I (Apo A-I), and apolipoprotein B (ApoB B) levels were measured using Nittobo enzymatic kits (Nittobo medical Co., Tokyo, Japan). Plasma HDL-cholesterol, triglyceride (TG), and total cholesterol (total-C) levels were measured using Asan enzymatic kits (Asan, Seoul, South Korea).”
as §2

[6] = test system: high-fat diet-induced obese mice; assay: Lipid excretion in feces; settings: FIG. 7, HFD+5% w/w in diet, 16 weeks
Method: as §1, with “animals.” for “animals. Plasma free fatty acid, phospholipid, apolipoprotein A-I (Apo A-I), and apolipoprotein B (ApoB B) levels were measured using Nittobo enzymatic kits (Nittobo medical Co., Tokyo, Japan). Plasma HDL-cholesterol, triglyceride (TG), and total cholesterol (total-C) levels were measured using Asan enzymatic kits (Asan, Seoul, South Korea).”
Lipids were extracted from feces from mice in the normal diet group (ND) and the high-fat diet groups (HFD, ERY, GLU, FRU, and PSI) and dried. Then, each of the dried lipid extracts was dissolved in 1 ml of ethanol. 200 μl of the lipid solution was emulsified in a solution of Triton X-100 and sodium cholate in distilled water. Triglyceride, cholesterol, and fatty acid levels in the feces were analyzed using the same enzymatic kits as those used in Example 2.

[7] = test system: CD36 (cluster of differentiation 36, 12491); assay: Small intestine mRNA expression, real-time quantitative PCR: CD36; settings: FIG. 8, HFD+5% w/w in diet, 16 weeks
Method: as §1, with “animals.” for “animals. Plasma free fatty acid, phospholipid, apolipoprotein A-I (Apo A-I), and apolipoprotein B (ApoB B) levels were measured using Nittobo enzymatic kits (Nittobo medical Co., Tokyo, Japan). Plasma HDL-cholesterol, triglyceride (TG), and total cholesterol (total-C) levels were measured using Asan enzymatic kits (Asan, Seoul, South Korea).”
as §2, with “CD36 (cluster of differentiation 36, 12491), ApoB48 (apolipoprotein B 48, 238055), FATP4” for “FAS”, “transporter 4, 26569), ABCG5 (ATP-binding cassette sub-family G member5, 27409),” for “synthase, 14101), ACC1 (Acetyl-CoA carboxylase 1, 107476), CPT1α (Carnitine palmitoyltransferase 1α, 12894),”, “ABCG8 (ATP-binding cassette sub-family G member8, 67470).” for “CPT2 (Carnitine palmitoyltransferase 2, 12896).”

Row | Compound | APO-A I/APO-B [1] | HTR, (HDL-C/Total-C) × 100 [1] | PL (plasma phospholipid) [1] [mg/dL] | hepatic mRNA expression level of FAS [2] | hepatic mRNA expression level of ACC1 [3] | hepatic mRNA expression level of CPT1α [4] | hepatic mRNA expression level of CPT2 [5] | cholesterol level in the feces [6] | fatty acid level in the feces [6] | triglyceride level in the feces [6] | mRNA expression level of CD36 in the small intestine [7] | mRNA expression level of CD36 in the small intestine ([7]; listed as D-psicose) | AI, atherogenic index, [(Total C) − HDL-C)]/HDL-C [1] | ApoA-I [1] [mg/dL] | ApoB [1] [mg/dL] | FFA (plasma free fatty acid) [1] [mmol/L] | HDL-C [1] [mmol/L] | TG (plasma triglyceride) [1] [mmol/L] | Total-C (plasma total cholesterol) [1] [mmol/L] | nonHDL-C [1] [mmol/L]
1 | O=C(CO)[C@H](O)[C@H](O)[C@H](O)CO [PSI, D-psicose] | 3.80 | 42.98 | 107.23 | much significantly lower than those in the ND group | much significantly lower than those in the ND group | much significantly lower than those in the ND group | much significantly lower than those in the ND group | significantly higher than those from other high-fat diet groups | significantly higher than those from other high-fat diet groups | significantly higher than those from other high-fat diet groups | significantly lower in the PSI group than those in other high-fat diet groups | reduces mRNA expression | – | – | – | – | – | – | – | –
2 | OC[C@@H](O)[C@@H](O)CO [ERY, erythritol] | 3.16 | 23.95 | 135.46 | significantly lower than those in the ND group | significantly lower than those in the ND group | significantly lower than those in the ND group | significantly lower than those in the ND group | significantly higher than those from the normal diet group | significantly higher than those from the normal diet group | significantly higher than those from the normal diet group | significantly higher | – | 3.55 | 27.28 | 8.61 | 0.53 | 1.22 | 1.25 | 5.35 | 4.36
3 | O=C(CO)[C@@H](O)[C@H](O)[C@H](O)CO [FRU, D-fructose] | 2.77 | 20.62 | 115.27 | significantly lower than those in the ND group | significantly lower than those in the ND group | significantly lower than those in the ND group | significantly lower than those in the ND group | significantly higher than those from the normal diet group | significantly higher than those from the normal diet group | significantly higher than those from the normal diet group | significantly higher | – | 4.55 | 27.69 | 9.96 | 0.48 | 0.83 | 1.17 | 4.14 | 3.32
4 | O=C[C@H](O)[C@@H](O)[C@H](O)[C@H](O)CO [GLU, D-glucose] | 2.92 | 20.19 | 104.86 | significantly lower than those in the ND group | significantly lower than those in the ND group | significantly lower than those in the ND group | significantly lower than those in the ND group | significantly higher than those from the normal diet group | significantly higher than those from the normal diet group | significantly higher than those from the normal diet group | significantly higher | – | 3.76 | 27.23 | 9.32 | 0.49 | 0.82 | 1.28 | 4.07 | 3.25
